Marks after values point to notes of the source that are not given here.
Experiments:
[1] = liposome potential assay with safranin O; assay type: biochemical
Description: FIG. 3 illustrates liposome potential assays. Suspension of EYPC LUVs in phosphate buffer was used (10 m M Nan H3-n PO4, n=1, 2, pH 6.4, 100 m M KCl or 75 m M Na2 H3-n PO4, n=1, 2, pH 6.4, 100 m M KCl or 75 m M NA2 SO4 inside and 100 m M NaCl, 60 nM safranin O, ex 480 nm, em 520 nm, outside). Legend for trace denotes the formation of potential in: —KCl vesicles upon application of valinmycin·Na2SO4 vesicles upon application of 3, —KCl vesicles upon application of 3, —Na2SO4 vesicles upon application of valinomycin.
Analysis of pH changes in the liposomes experiencing a CT gradient. a) Outwardly directed gradient of Cl:HPTS-loaded vesicles (100 μL of the stock solution), filled with a saline phosphate buffer (10 mM sodium phosphate, pH 6.4, 100 mM NaCl) were suspended in 1.9 mL of an isosmotic phosphate sulfate buffer (10 mM sodium phosphate, pH 6.0, 75 mM Na2SO4) and placed into a fluorimetric cell. The emission of HPTS at 510 nm was monitored with excitation wavelengths at 403 and 460 nm simultaneously. During the experiment, 20 μL of a 0-2 mM DMSO solution of the compound of interest was added through an injection port. Intravesicular pH values were obtained as described for pH-stat transport assays. At the end of experiment, the aqueous compartment of liposomes was equilibrated with extravesicular solution by lysis of liposomes with detergent (40 μL of 5% aqueous Triton X100). b) Inwardly directed gradient of Cl:HPTS-loaded vesicles (100 μL of the stock solution), filled with a isoosimomolar sulfate phosphate buffer (10 mM sodium phosphate, pH 6.0, 75 mM Na2SO4) were suspended in 1.9 mL of an isosmotic phosphate saline buffer (10 mM sodium phosphate, pH 6.4, 100 mM NaCl) and placed into a fluorimetric cell. Further analysis was conducted as described for the case of an outwardly directed gradient of […]. Analysis of the electrostatic potential on the surface of liposomes. LUVs (100 μL of stock solution, 100 mM KCl inside and outside or 75 mM Na2SO4 inside and outside) were suspended in 1.9 mL of 100 mM NaCl buffer containing 60 nM safranin O (a potential-sensitive dye). Safranin O emission was monitored at 580 nm with excitation at 520 nm. During the course of the experiment, 20 μL of a 0-0.12 mM DMSO solution of valinomycin or 0-2 mM of 3-8 DMSO solution was added. Experiments were completed by injection of 20 μL of 1 mM aqueous solution of the defect-inductive peptide melittin.

[2] = pH-assisted fluorimetric transport assay with calixarene amides (HPTS-loaded liposomes); assay type: biochemical; details: for ion transport in sulfate buffers: sodium sulfate-filled LUVs in isotonic solution, up to 50 μM
Description: The ability of 1 and 2 to mediate ion flux across a lipid bilayer was studied fluorimetrically. A solution of 1 or 2 was added to a suspension of EYPC large unilamellar vesicles (LUVs) containing the pH-sensitive dye pyranine. An NaOH solution was added to the extravesicular buffer to create a gradient of approximately one pH unit. The resulting electrostatic potential, caused by proton efflux from the liposomes, can be compensated by cation influx or anion efflux, as mediated by the exogenous ligand. Ion transport across the membrane was signaled by the increase in relative fluorescence that accompanied the rise in intravesicular pH.
Liposome Preparation. EYPC HPTS-Containing LUVs, egg yolk 1-α-phosphatidylcholine (EYPC, 60 mg, […]) was dissolved in a CHCl3MeOH mixture, the solution was evaporated under reduced pressure, and the resulting thin film was dried under high vacuum for 2 h. The lipid film was hydrated in 1.2 mL of phosphate buffer (10 mM sodium phosphage, pH=6.4, 75-100 mM MX, M=Na^+, K^+, Cs^+, X=[…], SO4^2−) containing 10 μM HPTS (pyranine 8-hydroxypyrene-1,3,6-trisulfonic acid trisodium salt) for 2 h. The LUV suspension (1 mL) was submitted to high-pressure extrusion at room temperature (2) extrusions through a 0.1 μM polycarbonate membrane afforded LUVs with a diameter of 100 nm). The LUV suspension was separated from extravesicular dye by size exclusion chromatography (SEC) stationary phase: Sephadex G-10, mobile phase:phosphate buffer) and diluted with the same phosphate buffer to give a stock solution with a lipid concentration of 11 mM (assuming 100% of lipid was incorporated into liposomes).
Fluorimetric Transport Assays. pH-Assisted Transport Assays. Typically, 100 μL of HPTS-loaded vesicles (stock solution) was suspended in 1.85 mL of the corresponding buffer and placed into a fluorimetric cell. HPTS emission at 510 nm was monitored with excitation wavelengths at 403 and 460 nm simultaneously. During the experiment, 20 μL of a 0-10 mM THF solution of the compound of interest was added through an injection port, followed by injection of 21 μL of 0.5 M aqueous NaOH. Addition of the NaOH caused a pH increase of approximately 1 pH unit in the extravesicular buffer. Maximal changes in dye emission were obtained at the end of each experiment by lysis of the liposomes with detergent (40 μL of 5% aqueous Triton x100). The final transport trace was obtained as a ratio of the emission intensities monitored at 460 and 403 nm and normalized to 100% of transport.

Structure (SMILES) | transmembrane potential formed ([1]; Na2SO4 inside, NaCl outside, safranin O outside, 1 mol %) | time to formation of the transmembrane potential ([1]; Na2SO4 inside, NaCl outside, 1 mol %) [min] | ability to create a transmembrane potential ([1]; Na2SO4 vesicles in NaCl buffer (conditions of the trimer)) | magnitude of the transmembrane potential ([1]; inwardly directed Cl− gradient, compared with valinomycin in liposomes with 100 mM KCl inside, 100 mM NaCl outside) | transport activity when buffer changed from NaCl to Na2SO4 [2] | Initial Pseudo-first Order Transport Rate Constants, Na2SO4 ([2]; 5 μM, 100 mM Na2SO4 inside pH 6.4 and outside pH 7.4, not corrected for unmediated exchange) | Initial Pseudo-first Order Transport Rate Constants, CsCl ([2]; 5 μM, 100 mM NaCl inside pH 6.4, 100 mM CsCl outside pH 7.4, not corrected for unmediated exchange) | Initial Pseudo-first Order Transport Rate Constants, KCl ([2]; 5 μM, 100 mM NaCl inside pH 6.4, 100 mM KCl outside pH 7.4, not corrected for unmediated exchange) | Initial Pseudo-first Order Transport Rate Constants, NaCl ([2]; 5 μM, 100 mM NaCl inside pH 6.4, 100 mM NaCl outside pH 7.4, not corrected for unmediated exchange) | cation selectivity of ion transport ([2]; buffers containing Na, K or Cs) | anion transport selectivity ([2]; chloride versus sulfate buffers) | transport activity ([2]; extravesicular Na, K or Cs chloride, ligand:lipid ratio of 1:100) | ion transport in sulfate buffers [2] | ion transport in sulfate buffers ([2]; listed as calix[4]arene tetrabutylamide)
CCCCNC(=O)COc1ccccc1Cc1cccc(Cc2ccccc2OCC(=O)NCCCC)c1OCC(=O)NCCCC [trimer 3, Tris-(N-butyl-2-phenoxyacetamide)] | stable negative charge inside liposomes | ≤ 2 | created transmembrane potential | comparable to that generated by 0.12 mol % valinomycin |  |  |  |  |  |  |  |  |  | 
CCCCNC(=O)COc1c2cccc1Cc1cccc(c1OCC(=O)NCCCC)Cc1cccc(c1OCC(=O)NCCCC)Cc1cccc(c1OCC(=O)NCCCC)C2 [calix[4]arene tetrabutylamide 2, Calix[4]arene tetrabutylamide] |  |  |  |  | essentially complete loss of transport activity | 1.1^b,d ×10^−3 s^−1 | 7.7^b,c ×10^−3 s^−1 | 6.4^b,c ×10^−3 s^−1 | 6.8^b,c ×10^−3 s^−1 | nonselective toward the cation | pronounced Cl^− over HSO4^− transport selectivity | rapid exchange of intra-and extravesicular electrolytes | not mediated | No significant transport
